Reference: patent US20220257774A1, “AROMATIC AMINE AR AHD BET TARGETING PROTEIN DEGRADATION CHIMERA COMPOUND AND USE” (HINOVA PHARMACEUTICALS INC., priority 2019, published 2022)
Where two headings read alike, the source gives them in different places.

Tests used:
Assay type in all cases: cell-based
BRD4 = molecular target: T1, BRD4 (Homo sapiens, UniProt O60885); assay: Down-regulation/degradation of BRD4 determined by Western blot in CWR22RV1 cells; conditions: concentration 100 nM, 24 h
T1 construct: CWR22RV1 cells were subcultured in cell culture media; endogenous in cells; host or cells: CWR22RV1 cells
Procedure: (§1) The Down-Regulation on the Protein Expression of Androgen Receptors AR and Brd4 Determined by Western Blot CWR22RV1 cells (National Collection of Authenticated Cell Cultures. TCHu100) FBS (Gibco, Cat. No. 10099-141) 0.01M PBS (Biosharp. Cat. No. 162262) RIPM1640 (Hyclone, Cat. No. 308090.01) Penicillin-Streptomycin (Hyclone. Cat. No. SV30010) DMSO (Sigma. Cat. No. D5879) Centrifuge tube, 15 ml (Excell Bio. Cat. No. CS015-0001) Cell culture plate (Excell Bio. Cat. No. CS016-0128) 6-well cell culture cluster (Corning, Cat. No. 3516) RIPA lysate buffer (Beyotime, Cat. No. P0013B) Protein loading buffer (Beyotime, Cat. No. P0015L) CA protein assay kit (Beyotime, Cat. No. P0012) SDS-PAGE gel preparation kit (Chengdu Baihe Technology Co., Ltd. Cat. No. PG112) Anti-β-tubulin mouse mAb (Zen Bioscience, Cat. No. 200608) Androgen Receptor ([…]) XP Rabbit mAb (CST. Cat. No. 5153) Anti-cMyc(D3N8F) Rabbit mAb (CST. Cat. No. 13987) Anti-BRD4(E2A7X) rabbit mAb (CST, Cat. No. 13440) Peroxidase Affinipure(HRP) Goat Anti-Mouse IgG (Zen Bioscience, Cat. No. 511103) Peroxidase Affinipure(HRP) Goat Anti-Rabbit IgG (Zen Bioscience, Cat. No. 511203) TBST (Biosharp. Cat. No. B[…]) ECL chemiluminescence kit (Beyotime, Cat. No. […]1 cells were subcultured in cell culture media, and then the cells in good growth condition were seeded in a 6-well plate at 2 ml/well (1×10^6 cells/well), and cultured overnight in a 37° C., 5% CO2 cell incubator. 2) The drug was prepared as a 10 mM stock solution with dimethyl sulfoxide (DMSO). […] The plate was gently tapped to thoroughly mix. In addition, the experiment included negative control wells (containing equal amount of DMSO) and positive control wells. 3) After culturing 24 hi, the cells were lysed with RIPA cell lysate, and the protein was extracted. […] The first antibody (Androgen Receptor ([…]) XP Rabbit mAb. Anti-cMyc(D3N8F) Rabbit mAb, Anti-BRD4(E2A7X) rabbit mAb and Anti-β-Tubulin Mouse mAb) was added and incubated overnight at 4° C. The membrane was rinsed with TBST solution three times, 10 min for each time. The secondary antibody (horseradish peroxidase labeled goat anti mouse IgG) was added and incubated at room temperature for 2 h, and then the membrane was washed with TBST solution three times, 10 m for each time. Finally. ECL chemiluminescence solution was added, and then photos were taken with automatic chemiluminescence instrument to collect pictures for analysis.

Androgen receptor (AR) = assay: Down-regulation/degradation of AR determined by Western blot in CWR22RV1 cells; conditions: concentration 100 nM, 24 h
Procedure: as §1

22RV1 cells = assay: Inhibition of the proliferation of drug-resistant prostate cancer cell 22RV1 (CCK-8); conditions: 22RV1 cells (enzalutamide-resistant), same method
How it was run: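 22RV1 cells, 1000/well in RPMI1640 with 10% FBS, treated in duplicate with 9-point 3-fold dilutions from 10 μM (0.1% DMSO final). After 6 days at 37 °C, CCK-8 added for 1 h and OD450 read. IC50 from dose-response inhibition fit.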

LNCaP/AR cells = assay: Inhibition of the proliferation of LNCap/AR cells (CCK-8); conditions: read-out: LNCap/AR IC50
How it was run: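 Proliferation was read by CCK-8 (OD 450 nm, 1 h) after six days of compound exposure. Cells were seeded at 1000 per well overnight, then dosed in duplicate over nine 3-fold steps with a top final concentration of 10 μM in 0.1% DMSO; IC50 was fitted from inhibition curves.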

[1] = 144 h, LNCaP/AR cells, 6 days culture, CCK-8
[2] = LNCaP/AR cells, 6 days culture, CCK-8

Cc1ccc(-c2c(C)noc2C)cc1N(CCCOC1CN(c2cc3c(cc2F)CN(C2CCC(=O)NC2=O)C3=O)C1)c1ccc(C2(C#N)CC2)cc1 (stereo not drawn) [Compound 123, 1-(4-((5-(3,5-dimethylisoxazol-4-yl)-2-methylphenyl)(3-((1-(2-(2,6-dioxopiperidin-3-yl)-6-fluoro-3-oxoisoindolin-5-yl)azetidin-3-yl)oxy)propyl)amino)phenyl)cyclopropane-1-nitrile]
BRD4 (% degradation) (BRD4): C (49%-20% of the target protein was degraded) | AR (% degradation) (Androgen receptor (AR)): D (<20% of the target protein was degraded) | IC50 (22RV1 cells; Homo sapiens): 501 to 2000 nM | IC50 (LNCaP/AR cells; [1]): 501 to 2000 nM

Cc1ccc(-c2c(C)noc2C)cc1N(CCCOC1CN(c2cc3c(cc2F)C(=O)N(C2CCC(=O)NC2=O)C3)C1)c1ccc(C2(C#N)CC2)cc1 (stereo not drawn) [Compound 124, 1-(4-((5-(3,5-dimethylisoxazol-4-yl)-2-methylphenyl)(3-((1-(2-(2,6-dioxopiperidin-3-yl)-6-fluoro-1-oxoisoindolin-5-yl)azetidin-3-yl)oxy)propyl)amino)phenyl)cyclopropane-1-nitrile]
BRD4 (% degradation) (BRD4): B (79%-50% of the target protein was degraded) | AR (% degradation) (Androgen receptor (AR)): B (79%-50% of the target protein was degraded) | IC50 (22RV1 cells; Homo sapiens): < 100 nM | IC50 (LNCaP/AR cells; [1]): 101 to 500 nM

Cc1ccc(-c2c(C)noc2C)cc1N(CC1CCN(c2cc3c(cc2F)CN(C2CCC(=O)NC2=O)C3=O)CC1)c1ccc(C2(C#N)CC2)cc1 (stereo not drawn) [Compound 127, 1-(4-((5-(3,5-dimethylisoxazol-4-yl)-2-methylphenyl)((1-(2-(2,6-dioxopiperidin-3-yl)-6-fluoro-3-oxoisoindolin-5-yl)piperidin-4-yl)methyl)amino)phenyl)cyclopropane-1-nitrile]
BRD4 (% degradation) (BRD4): B (79%-50% of the target protein was degraded) | AR (% degradation) (Androgen receptor (AR)): D (<20% of the target protein was degraded) | IC50 (22RV1 cells; Homo sapiens): 101 to 500 nM | IC50 (LNCaP/AR cells; [1]): 101 to 500 nM

Cc1ccc(-c2c(C)noc2C)cc1N(CC1CCN(c2cc3c(cc2F)C(=O)N(C2CCC(=O)NC2=O)C3)CC1)c1ccc(C2(C#N)CC2)cc1 (stereo not drawn) [Compound 128, 1-(4-((5-(3,5-dimethylisoxazol-4-yl)-2-methylphenyl)((1-(2-(2,6-dioxopiperidin-3-yl)-6-fluoro-1-oxoisoindolin-5-yl)piperidin-4-yl)methyl)amino)phenyl)cyclopropane-1-nitrile]
BRD4 (% degradation) (BRD4): C (49%-20% of the target protein was degraded) | AR (% degradation) (Androgen receptor (AR)): D (<20% of the target protein was degraded) | IC50 (22RV1 cells; Homo sapiens): 101 to 500 nM | IC50 (LNCaP/AR cells; [1]): 501 to 2000 nM

Cc1ccc(-c2c(C)noc2C)cc1N(CCC1CN(c2cc3c(cc2F)C(=O)N(C2CCC(=O)NC2=O)C3=O)C1)c1ccc(C2(C#N)CC2)cc1 (stereo not drawn) [Compound 129, 1-(4-((5-(3,5-Dimethylisoxazol-4-yl)-2-methylphenyl)(2-(1-(2-(2,6-dioxopiperidin-3-yl)-6-fluoro-1,3-dioxoisoindolin-5-yl)azetidin-3-yl)ethyl)amino)phenyl)cyclopropane-1-carbonitrile]
BRD4 (% degradation) (BRD4): B (79%-50% of the target protein was degraded) | AR (% degradation) (Androgen receptor (AR)): C (49%-20% of the target protein was degraded) | IC50 (22RV1 cells; Homo sapiens): < 100 nM | IC50 (LNCaP/AR cells; [1]): 101 to 500 nM

Cc1ccc(-c2c(C)noc2C)cc1N(C[C@H]1CC[C@H](CNc2cc3c(cc2F)C(=O)N(C2CCC(=O)NC2=O)C3=O)CC1)c1ccc(C#N)c(Cl)c1 (stereo partly drawn) [Compound 131]
BRD4 (% degradation) (BRD4): A (>80% of the target protein was degraded) | AR (% degradation) (Androgen receptor (AR)): C (49%-20% of the target protein was degraded) | IC50 (22RV1 cells): < 100 nM | IC50 (LNCaP/AR cells; [2]): < 100 nM

Cc1ccc(-c2c(C)noc2C)cc1N(C[C@H]1CC[C@H](CNc2cc3c(cc2F)C(=O)N(C2CCC(=O)NC2=O)C3)CC1)c1ccc(C#N)c(Cl)c1 (stereo partly drawn) [Compound 135]
BRD4 (% degradation) (BRD4): A (>80% of the target protein was degraded) | AR (% degradation) (Androgen receptor (AR)): C (49%-20% of the target protein was degraded) | IC50 (22RV1 cells): < 100 nM | IC50 (LNCaP/AR cells; [2]): < 100 nM

Cc1ccc(-c2c(C)noc2C)cc1N(CC1(COC2CN(c3ccc4c(c3)C(=O)N(C3CCC(=O)NC3=O)C4=O)C2)CC1)c1ccc(C2(C#N)CC2)cc1 (stereo not drawn) [Compound 137, 1-(4-((5-(3,5-Dimethylisoxazol-4-yl)-2-methylphenyl)((1-(((1-(2-(2,6-dioxopiperidin-3-yl)-1,3-dioxoisoindolin-5-yl)azetidin-3-yl)oxy)methyl)cyclopropyl)methyl)amino)phenyl)cyclopropane-1-nitrile]
BRD4 (% degradation) (BRD4): B (79%-50% of the target protein was degraded) | AR (% degradation) (Androgen receptor (AR)): C (49%-20% of the target protein was degraded) | IC50 (22RV1 cells; Homo sapiens): > 2000 nM | IC50 (LNCaP/AR cells; [1]): > 2000 nM

Cc1ccc(-c2c(C)noc2C)cc1N(CCCOC1(C)CN(c2ccc3c(c2)C(=O)N(C2CCC(=O)NC2=O)C3=O)C1)c1ccc(C2(C#N)CC2)cc1 (stereo not drawn) [Compound 140]
BRD4 (% degradation) (BRD4): C (49%-20% of the target protein was degraded) | AR (% degradation) (Androgen receptor (AR)): D (<20% of the target protein was degraded) | IC50 (22RV1 cells; Homo sapiens): 101 to 500 nM | IC50 (LNCaP/AR cells; [1]): 501 to 2000 nM

Cc1ccc(-c2c(C)noc2C)cc1N(C[C@H]1CC[C@H](CNc2ccc3c(c2)C(=O)N(C2CCC(=O)NC2=O)C3=O)CC1)c1ccc(C2(C#N)CC2)cc1 (stereo partly drawn) [Compound 149]
BRD4 (% degradation) (BRD4): A (>80% of the target protein was degraded) | AR (% degradation) (Androgen receptor (AR)): A (>80% of the target protein was degraded) | IC50 (22RV1 cells; Homo sapiens): < 100 nM | IC50 (LNCaP/AR cells; [1]): < 100 nM

Cc1ccc(-c2c(C)noc2C)cc1N(CC1CN(C2CN(c3cc4c(cc3F)C(=O)N(C3CCC(=O)NC3=O)C4)C2)C1)c1ccc(C2(C#N)CC2)cc1 (stereo not drawn) [Compound 157]
BRD4 (% degradation) (BRD4): A (>80% of the target protein was degraded) | AR (% degradation) (Androgen receptor (AR)): B (79%-50% of the target protein was degraded) | IC50 (22RV1 cells; Homo sapiens): < 100 nM | IC50 (LNCaP/AR cells; [1]): < 100 nM

Cc1ccc(-c2c(C)noc2C)cc1N(CC1CCN(C2CN(c3cc4c(cc3F)CN(C3CCC(=O)NC3=O)C4=O)C2)CC1)c1ccc(C2(C#N)CC2)cc1 (stereo not drawn) [Compound 159]
BRD4 (% degradation) (BRD4): B (79%-50% of the target protein was degraded) | AR (% degradation) (Androgen receptor (AR)): C (49%-20% of the target protein was degraded) | IC50 (22RV1 cells; Homo sapiens): < 100 nM | IC50 (LNCaP/AR cells; [1]): < 100 nM

Cc1ccc(-c2c(C)noc2C)cc1N(CCCCNc1ccc2c(c1)C(=O)N(C1CCC(=O)NC1=O)C2=O)c1ccc(C#N)c(Cl)c1 (stereo not drawn) [Compound 165, 2-Chloro-4-((5-(3,5-dimethylisoxazol-4-yl)-2-methylphenyl)(4-((2-(2,6-dioxopiperidin-3)-1,3-dioxyisoindolin-5-yl)amino)butyl)amino)benzonitrile]
BRD4 (% degradation) (BRD4): A (>80% of the target protein was degraded) | AR (% degradation) (Androgen receptor (AR)): C (49%-20% of the target protein was degraded) | IC50 (22RV1 cells; Homo sapiens): > 2000 nM | IC50 (LNCaP/AR cells; LNCaP/AR, 144 h): 501 to 2000 nM

Cc1ccc(-c2c(C)noc2C)cc1N(C[C@H]1CC[C@H](CNc2cc3c(cc2F)CN(C2CCC(=O)NC2=O)C3=O)CC1)c1ccc(C2(C#N)CC2)cc1 (stereo partly drawn) [Compound 168]
BRD4 (% degradation) (BRD4): A (>80% of the target protein was degraded) | AR (% degradation) (Androgen receptor (AR)): C (49%-20% of the target protein was degraded) | IC50 (22RV1 cells; Homo sapiens): < 100 nM | IC50 (LNCaP/AR cells; [1]): < 100 nM

Cc1ccc(-c2c(C)noc2C)cc1N(C[C@H]1CC[C@H](CNc2cc3c(cc2F)C(=O)N(C2CCC(=O)NC2=O)C3)CC1)c1ccc(C2(C#N)CC2)cc1 (stereo partly drawn) [Compound 169]
BRD4 (% degradation) (BRD4): B (79%-50% of the target protein was degraded) | AR (% degradation) (Androgen receptor (AR)): C (49%-20% of the target protein was degraded) | IC50 (22RV1 cells; Homo sapiens): < 100 nM | IC50 (LNCaP/AR cells; [1]): 101 to 500 nM
